For the assay, the target named is human IRAK4 (Homo sapiens (Human), UniProt Q9NWZ3). Kind of assay: IRAK4 kinase inhibition, Transcreener fluorescence polarization ADP assay. The assay is classed as biochemical. As to conditions: recombinant full-length His6-IRAK4; 125 uM ATP; 90 min; Ki computed using ATP Km 642 uM. As to the method:
Compounds were assayed for inhibition of human IRAK4 and IRAK1 catalytic activity using recombinant enzyme produced from insect cells. Full-length IRAK4 protein, carrying an N-terminal His6-Tag, was obtained from Life Technologies (Carlsbad, Calif., USA). The IRAK1 construct was produced internally and was comprised of IRAK1 residues Arg194 to Ser712, preceded by an NH2-terminal His6 tag and the coding sequence for glutathione-S-transferase.
(In general: Polarisation of emitted light reports the rotation of a fluorescent probe.)
Chain of human IRAK4 (Q9NWZ3 whole entry, the tested form may be a part): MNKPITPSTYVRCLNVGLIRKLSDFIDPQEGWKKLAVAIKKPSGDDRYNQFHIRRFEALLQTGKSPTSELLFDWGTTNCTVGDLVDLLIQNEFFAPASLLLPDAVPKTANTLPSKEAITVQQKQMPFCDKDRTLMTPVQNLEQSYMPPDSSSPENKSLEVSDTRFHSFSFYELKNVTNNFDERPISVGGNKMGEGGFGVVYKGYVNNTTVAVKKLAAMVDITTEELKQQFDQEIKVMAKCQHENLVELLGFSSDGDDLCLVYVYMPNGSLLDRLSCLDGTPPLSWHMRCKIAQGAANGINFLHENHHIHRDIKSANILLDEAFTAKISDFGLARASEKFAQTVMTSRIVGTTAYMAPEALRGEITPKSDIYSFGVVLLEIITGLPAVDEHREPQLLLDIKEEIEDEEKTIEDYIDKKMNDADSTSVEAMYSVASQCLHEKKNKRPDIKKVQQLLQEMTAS
One may read the Ki as the equilibrium dissociation constant of an inhibitor or competing ligand from its target. With `C[C@H](O)CN1CCN(c2cc3c(cc2NC(=O)c2cnn4cccnc24)CC(C)(C)O3)CC1` [Example 474, (S)-N-(6-(4-(2-hydroxypropyl)piperazin-1-yl)-2,2-dimethyl-2,3-dihydrobenzofuran-5-yl)pyrazolo[1,5-a]pyrimidine-3-carboxamide], the Ki turned out to be 20 nM.

Take `C[C@@H](O)CN1CCN(c2cc3c(cc2NC(=O)c2cnn4cccnc24)CC(C)(C)O3)CC1` [Example 475, (R)-N-(6-(4-(2-hydroxypropyl)piperazin-1-yl)-2,2-dimethyl-2,3-dihydrobenzofuran-5-yl)pyrazolo[1,5-a]pyrimidine-3-carboxamide]: the Ki was 9.5 nM.

For the compound `CC(C)(N)CN1CCN(c2cc3c(cc2NC(=O)c2cnn4cccnc24)CC(C)(C)O3)CC1` [Example 476, N-(6-(4-(2-amino-2-methylpropyl)piperazin-1-yl)-2,2-dimethyl-2,3-dihydrobenzofuran-5-yl)pyrazolo[1,5-a]pyrimidine-3-carboxamide], the inhibition constant Ki was found to be 33 nM.

As to `C[C@@H](N)CN1CCN(c2cc3c(cc2NC(=O)c2cnn4cccnc24)CC(C)(C)O3)CC1` [Example 477, N-[6-[4-[(2R)-2-Aminopropyl]piperazin-1-yl]-2,2-dimethyl-3H-benzofuran-5-yl]pyrazolo[1,5-a]pyrimidine-3-carboxamide], the Ki was 35 nM.

For `C[C@H](N)CN1CCN(c2cc3c(cc2NC(=O)c2cnn4cccnc24)CC(C)(C)O3)CC1` [Example 478, N-[6-[4-[(2S)-2-Aminopropyl]piperazin-1-yl]-2,2-dimethyl-3H-benzofuran-5-yl]pyrazolo[1,5-a]pyrimidine-3-carboxamide], the inhibitory constant (Ki) worked out at 6 nM.

In the case of `Cc1oc(=O)[nH]c1CN1CCN(c2cc3c(cc2NC(=O)c2cnn4cccnc24)CC(C)(C)O3)CC1` [Example 479, N-[2,2-Dimethyl-6-[4-[(5-methyl-2-oxo-3H-oxazol-4-yl)methyl]piperazin-1-yl]-3H-benzofuran-5-yl]pyrazolo[1,5-a]pyrimidine-3-carboxamide], the Ki came out at 6.7 nM.

For `CC(C)N1Cc2cc(NC(=O)c3cnn4ccc(C(F)F)nc34)c(N3CCOCC3)cc2C1=O` [Example 484, 5-(Difluoromethyl)-N-(2-isopropyl-6-morpholino-1-oxo-isoindolin-5-yl)pyrazolo[1,5-a]pyrimidine-3-carboxamide], the Ki came out at 350 nM.

With `CC(C)N1Cc2cc(NC(=O)c3cnn4cc(C#N)cnc34)c(N3CCOCC3)cc2C1=O` [Example 485, 6-cyano-N-(2-isopropyl-6-morpholino-1-oxo-isoindolin-5-yl)pyrazolo[1,5-a]pyrimidine-3-carboxamide], the Ki was determined as 66 nM.

Regarding `CC(C)N1Cc2cc(NC(=O)c3cnn4cc(C(N)=O)cnc34)c(N3CCOCC3)cc2C1=O` [Example 486, N3-(2-isopropyl-6-morpholino-1-oxo-isoindolin-5-yl)pyrazolo[1,5-a]pyrimidine-3,6-dicarboxamide], the Ki worked out at 37 nM.

On to `CC(C)(O)[C@H](F)CN1Cc2cc(NC(=O)c3cnn4cccnc34)c(C3CC3)cc2C1=O` [Example 487, N-[6-Cyclopropyl-2-[(2R)-2-fluoro-3-hydroxy-3-methyl-butyl]-1-oxo-isoindolin-5-yl]pyrazolo[1,5-a]pyrimidine-3-carboxamide], for which the Ki worked out at 0.61 nM.

As to `Cn1cnc(-c2cc3c(cc2NC(=O)c2cnn4cccnc24)CC(C)(C)O3)c1` [Example 488, N-[2,2-Dimethyl-6-(1-methylimidazol-4-yl)-3H-benzofuran-5-yl]pyrazolo[1,5-a]pyrimidine-3-carboxamide], the Ki stood at 610 nM.

Take `Cn1ccc(-c2cc3c(cc2NC(=O)c2cnn4cccnc24)CC(C)(C)O3)n1` [Example 489, N-(2,2-dimethyl-6-(1-methyl-1H-pyrazol-3-yl)-2,3-dihydrobenzofuran-5-yl)pyrazolo[1,5-a]pyrimidine-3-carboxamide]: the inhibitory constant (Ki) worked out at 240 nM.

In the case of `CC1(C)Cc2cc(NC(=O)c3cnn4cc(C5CNC5)cnc34)c(N3CCOCC3)cc2O1` [Example 490, 6-(Azetidin-3-yl)-N-(2,2-dimethyl-6-morpholino-3H-benzofuran-5-yl)pyrazolo[1,5-a]pyrimidine-3-carboxamide], the Ki was 980 nM.

For `CC1(C)Cc2cc(NC(=O)c3cnn4cc(C(N)=O)cnc34)c(N3CCOCC3)cc2O1` [Example 491, N^3-(2,2-dimethyl-6-morpholino-2,3-dihydrobenzofuran-5-yl)pyrazolo[1,5-a]pyrimidine-3,6-dicarboxamide], the Ki turned out to be 1.1 nM.

`CNC(=O)c1cnc2c(C(=O)Nc3cc4c(cc3N3CCOCC3)C(=O)N(C[C@@H](F)C(C)(C)O)C4)cnn2c1` [Example 492, N3-[2-[(2R)-2-Fluoro-3-hydroxy-3-methyl-butyl]-6-morpholino-1-oxo-isoindolin-5-yl]-N^6-methyl-pyrazolo[1,5-a]pyrimidine-3,6-dicarboxamide]: the Ki turned out to be 9.1 nM.

For `CC1(C)Cc2cc(NC(=O)c3cnn4cc(OC(F)F)cnc34)c(N3CCOCC3)cc2O1` [Example 493, 6-(difluoromethoxy)-N-(2,2-dimethyl-6-morpholino-2,3-dihydrobenzofuran-5-yl)pyrazolo[1,5-a]pyrimidine-3-carboxamide], the Ki came out at 43 nM.

Consider `CC(C)(O)[C@H](F)CN1Cc2cc(NC(=O)c3cnn4cccnc34)c(OCC3CC3)cc2C1=O` [Example 496, N-[6-(Cyclopropylmethoxy)-2-[(2R)-2-fluoro-3-hydroxy-3-methyl-butyl]-1-oxo-isoindolin-5-yl]pyrazolo[1,5-a]pyrimidine-3-carboxamide], for which the Ki came out at 0.83 nM.

As to `C[C@H]1CN(C)CC[C@]12Cc1cc(NC(=O)c3cnn4cccnc34)c(N3CCOCC3)cc1O2` [Example 497, N-((2R,3'S)-1′,3′-dimethyl-6-morpholino-3H-spiro[benzofuran-2,4′-piperidin]-5-yl)pyrazolo[1,5-a]pyrimidine-3-carboxamide], the Ki stood at 2.6 nM.

As for `C[C@@H]1CN(C)CC[C@]12Cc1cc(NC(=O)c3cnn4cccnc34)c(N3CCOCC3)cc1O2` [Example 498, N-((2R,3′R)-1′,3′-dimethyl-6-morpholino-3H-spiro[benzofuran-2,4′-piperidin]-5-yl)pyrazolo[1,5-a]pyrimidine-3-carboxamide], the Ki is 29 nM.

As to `CC1(C)Cc2cc(NC(=O)c3cnn4cccnc34)c(N3CCOCC3)cc2C1=O` [Example 499, N-(2,2-Dimethyl-6-morpholino-1-oxo-2,3-dihydro-1H-inden-5-yl)pyrazolo[1,5-a]pyrimidine-3-carboxamide], the Ki was 30 nM.

With `CC(C)(O)[C@H](F)CN1Cc2cc(NC(=O)c3cnn4cccnc34)ccc2C1=O` [Example 500, N-[2-[(2R)-2-Fluoro-3-hydroxy-3-methyl-butyl]-1-oxo-isoindolin-5-yl]pyrazolo[1,5-a]pyrimidine-3-carboxamide], the inhibitory constant (Ki) was 84 nM.

For the compound `O=C(Nc1cc2c(cc1N1CCOCC1)OC1(CCN(CCF)CC1)C2)c1cnn2cccnc12` [Example 501, N-(1′-(2-fluoroethyl)-6-morpholino-3H-spiro[benzofuran-2,4′-piperidin]-5-yl)pyrazolo[1,5-a]pyrimidine-3-carboxamide], the inhibitory constant (Ki) is 6.9 nM.

As to `CCN1CCC2(CC1)Cc1cc(NC(=O)c3cnn4cccnc34)c(N3CCOCC3)cc1O2` [Example 502, N-(1′-ethyl-6-morpholino-3H-spiro[benzofuran-2,4′-piperidin]-5-yl)pyrazolo[1,5-a]pyrimidine-3-carboxamide], the Ki is 5.8 nM.
